Results reported in article PMC11672562, “Synthesis and Antibacterial Activity of New 6″-Modified Tobramycin Derivatives” (Antibiotics, 2024).
Values after ≈ are worked out from the molar mass of the structure shown. Read-outs that look alike come from different tables or passages of the source.

Key:
S. aureus ATCC 29213 = test: MIC, broth microdilution, S. aureus ATCC 29213; type: cell-based
Description: (§1) The microbial strains used in this study were obtained from the collection of the Gause Institute of New Antibiotics. […] Storage was carried out in accordance with CLSI guidelines. Prior to experimentation, the bacterial strains were revived from cryopreservation by inoculating them onto trypticase soy agar (Becton, Dickinson, France) and incubating at (36 ± 1) °C for 16–24 h. Individual morphologically homogeneous colonies were then suspended in sterile physiological saline, and the turbidity of the suspension was adjusted to 0.5 McFarland units using a DEN-1 spectrophotometer (Biosan, Riga, Latvia), which corresponds to a concentration of 1.5 × 10^8 CFU/mL.
(§2) The samples were dissolved in sterile distilled water or dimethyl sulfoxide (DMSO), depending on the physicochemical properties of the compounds under investigation, to a concentration of 10,000 µg/mL.
(§3) Activity was evaluated by determining the minimum inhibitory concentration (MIC) values using the microdilution method in Mueller–Hinton Broth (Beckton and Dickinson, Le Pont-de-Claix, France), in accordance with the standard procedure for assessing the antimicrobial susceptibility of microorganisms.
(§4) The analysis was conducted in 96-well microtiter plates (Medpolymer, Saint Petersburg, Russia). The bacterial inoculum was introduced within 15 min of preparation. […] Microbial growth in the presence of the tested compounds was compared to the growth control (without exposure to the test samples). The MIC was defined as the lowest concentration at which visible microbial growth was inhibited.
(§5) The MIC values of the reference strains were required to fall within the acceptable ranges specified in [30], provided that standard assay conditions were maintained.

E. coli ATCC 25922 = test: MIC, broth microdilution, E. coli ATCC 25922; type: cell-based
Description: as §1, §2, §3, §4, §5

E. coli JW5503 = test: MIC, broth microdilution, E. coli JW5503; type: cell-based; details: E. coli JW5503; Table 1
Description: as §1, §2, §3, §4

P. aeruginosa ATCC 27853 = test: MIC, broth microdilution, P. aeruginosa ATCC 27853; type: cell-based
Description: The microbial strains used in this study were obtained from the collection of the Gause Institute of New Antibiotics. […] Storage was carried out in accordance with CLSI guidelines.
as §3, §4, §5

M. smegmatis ATCC 607 = test: MIC, broth microdilution, M. smegmatis ATCC 607; type: cell-based; details: Table 1
Description: as §1, §2, §3, §4

E. coli JW5503 kanS = test: MIC in LB medium, E. coli JW5503 kanS; type: cell-based; details: 18 h
Description: (§6) The determination of the minimum inhibitory concentration (MIC) was performed on three strains from the working collection of MSU: E. coli JW5503 [34], which lacked a kanamycin resistance cassette removed as per the method outlined in [39], and two strains derived from this strain through in vivo selection with kanamycin. The latter strains harbored P610T and P610L substitutions in the fusA gene. For the MIC determination, 100 μL (rows 2–11) and 200 μL (row 1) of LB liquid medium containing a 1:1000 dilution of overnight culture was added to each well of a 96-well transparent plate. Subsequently, 2 μL of a 50 μg/mL antibiotic solution was introduced into the first row, and serial two-fold dilutions were performed across each horizontal row, decreasing the antibiotic concentration incrementally. The final two rows were designated as controls: row 12 contained LB medium without cells or antibiotics, and row 11 contained cells without antibiotics. Following 18 h of incubation at 37 °C with constant agitation, the optical density at 590 nm (A590) was measured using a Victor X5 2030 spectrofluorometer (PerkinElmer, Waltham, MA, USA). The MIC was defined as the antibiotic concentration in the first well where no cell growth occurred. Each experiment was conducted in triplicate for all tested antibiotics.

[1] = tested on: E. coli JW5503 kanS EF-G P610T; test: MIC in LB medium, aminoglycoside-resistant mutant EF-G P610T; type: cell-based; details: 18 h
Description: as §6

[2] = tested on: E. coli JW5503 kanS EF-G P610L; test: MIC in LB medium, aminoglycoside-resistant mutant EF-G P610L; type: cell-based; details: 18 h
Description: as §6

[3] = tested on: E. coli S30 Extract System, firefly luciferase synthesis; test: Cell-free translation inhibition assay (firefly luciferase synthesis); type: biochemical; details: final concentration of 2 μM; water = 100
Description: The inhibitory effects of the tested compounds on in vitro firefly luciferase synthesis were evaluated using the E. coli S30 Extract System for Linear Templates (Promega, Madison, WI, USA), as described previously. Briefly, reaction mixtures with a total volume of 5 μL were prepared, containing 0.1 mM of a mixture of all canonical amino acids, 4 U of RiboLock RNase Inhibitor (Thermo Fisher Scientific, Waltham, MA, USA), and 2 μM of the tested compounds. After pre-incubation at room temperature for 5 min, 100 ng of in vitro-transcribed firefly luciferase mRNA was added. The mixtures were then incubated at 37 °C for 20 min. After incubation, each reaction was supplemented with 5 μL of Bright-Glo™ reagent (Promega, Madison, WI, USA), and chemiluminescence was measured using a VICTOR X5 Multilabel Plate Reader (PerkinElmer, Waltham, MA, USA). The luminescence values were normalized to the negative control (water), which was assigned 100% activity.

[4] = tested on: E. coli JW5503 transformed with pJC27 plasmids; test: Translation accuracy reporter (mutant β-galactosidase, X-Gal staining); type: cell-based; details: 4a,b, 6a,b and tobramycin 50 mg/mL; streptomycin, kanamycin 5 mg/mL; rifampicin 1 mg/mL
From the text: It is known that tobramycin inhibits protein biosynthesis by the blocking of initiation and inducing translation errors. We have tested whether the new tobramycin derivatives 4a,b and 6a,b retain the ability to induce translation errors. This assay uses an E. coli strain with a plasmid construct that encodes beta-galactosidase in such a way that a functional protein is only synthesized in the presence of translation errors. If the mechanism of action of the antibiotic is related to the translation errors, we observe indigo blue staining along the edge of the inhibition zone because functional b-galactosidase degrades the substrate X-Gal. As a result, if the antibiotic causes translation errors, blue staining forms around the edge of the inhibition zone. […] According to this, an introduction at the 6″-position of the aminoalkylamino or guanidinoalkylamino residues of tobramycin retains an original mechanism of aminoglycoside’s antibacterial activity affecting the protein synthesis.
To qualitatively evaluate translation accuracy in the presence of antibiotics, E. coli JW5503 [34] (kanamycin resistance cassette removed as per) transformed with pJC27 plasmids was utilized. The plasmids encode the β-galactosidase gene containing a mutation in its active center (E537: GAA→GAC/GGG), alongside a control plasmid without the mutation. Active β-galactosidase synthesis could only occur if translation errors were introduced. Petri dishes (9 cm) containing 20 mL of solid LB agar (1.5%) supplemented with chloramphenicol (11.3 μg/mL) and X-Gal (80 μg/mL) were prepared. A secondary layer comprising 3.5 mL of LB agar (0.6%), supplemented with 11.3 μg/mL chloramphenicol and 0.5 mL of liquid culture (A600~1.0), was added and allowed to solidify. Antibiotics were applied to the plates in 1 μL aliquots at the following concentrations: 50 mg/mL for 4a, 4b, 6a, 6b, and tobramycin; 5 mg/mL for streptomycin and kanamycin; and 1 mg/mL for rifampicin. Plates were incubated at 37 °C for 18 h. […] Results were documented using a Samsung Galaxy Tab A71 camera.

[5] = tested on: resistant clinical isolates of P. aeruginosa; test: MIC against resistant clinical isolates of P. aeruginosa; type: cell-based; details: Pseudomonas aeruginosa, P. aeruginosa strain
Description: as §1, §2, §3, §4

[6] = quality control, must fall in acceptable ranges of [30]

kanamycin A [reference compound]
MIC (S. aureus ATCC 29213; Table 1): 0.5 µg/mL
MIC of control antibiotic (S. aureus ATCC 29213; [6]): 1 to 4 µg/mL
MIC (E. coli ATCC 25922; Table 1): 1 µg/mL
MIC of control antibiotic (E. coli ATCC 25922; [6]): 1 to 4 µg/mL
MIC (E. coli JW5503): 1 µg/mL
MIC (P. aeruginosa ATCC 27853; P. aeruginosa ATCC 27853, Table 1): >32 µg/mL
MIC (P. aeruginosa ATCC 27853; P. aeruginosa ATCC 27853, Table 1, listed as kanamycin): > 32 µg/mL
MIC (M. smegmatis ATCC 607): 0.125 µg/mL
MIC (E. coli JW5503 kanS; E. coli JW5503 kanS, LB medium): 5 µg/mL
MIC ([1]; E. coli JW5503 kanS EF-G P610T, LB medium): 80 µg/mL
MIC ([2]; E. coli JW5503 kanS EF-G P610L, LB medium): 80 µg/mL
% control signal (relative maximal rate of firefly luciferase accumulation in vitro) [3]: 0.1%
induction of translation errors (blue staining at edge of inhibition zone) [4]: acted as miscoding inductors

CO[C@H]1/C=C/O[C@@]2(C)Oc3c(C)c(O)c4c(O)c(c(/C=N/N5CCN(C)CC5)c(O)c4c3C2=O)NC(=O)/C(C)=C\C=C\[C@H](C)[C@H](O)[C@@H](C)[C@@H](O)[C@@H](C)[C@H](OC(C)=O)[C@@H]1C [Rifampicin, rifampicin, reference compound]
MIC (E. coli JW5503 kanS; Escherichia coli, JW5503KANS): 5 µg/mL (≈ 6.08 µM)
MIC ([1]; Escherichia coli): 5 µg/mL (≈ 6.08 µM)
MIC ([2]; Escherichia coli): 5 µg/mL (≈ 6.08 µM)
% control signal (relative maximal rate of firefly luciferase accumulation in vitro) [3]: 87%
induction of translation errors (blue staining at edge of inhibition zone) [4]: does not induce ribosomal errors

C[C@H]1[C@H](NC(=O)/C(=N\OC(C)(C)C(=O)O)c2csc(N)n2)C(=O)N1S(=O)(=O)O [Aztreonam, aztreonam, reference compound]
MIC (P. aeruginosa ATCC 27853; Pseudomonas aeruginosa, ATCC27853, P. aeruginosa ATCC 27853, Table 2, read-out: MIC): 4 µg/mL (≈ 9.19 µM)
MIC ([5]; Table 2 column 3, head prints 27853): 16 µg/mL (≈ 36.7 µM)
MIC ([5]; Table 2 column 4, head prints 27853): 8 µg/mL (≈ 18.4 µM)
MIC ([5]; Table 2 column 5, head prints 27853): 32 µg/mL (≈ 73.5 µM)
MIC ([5]; Table 2 column 6, head prints 27853): 16 µg/mL (≈ 36.7 µM)
MIC ([5]; Table 2 column 7, head prints 27853): 16 µg/mL (≈ 36.7 µM)

[H]/N=C(/N)N[C@H]1[C@H](O)[C@@H](O)[C@H](O[C@@H]2O[C@@H](C)[C@](O)(C=O)[C@H]2O[C@@H]2O[C@@H](CO)[C@H](O)[C@@H](O)[C@@H]2NC)[C@@H](N/C(N)=N\[H])[C@@H]1O [streptomycin, reference compound]
induction of translation errors (blue staining at edge of inhibition zone) [4]: acted as miscoding inductors

CC[C@H]1OC(=O)[C@H](C)[C@@H](O[C@H]2C[C@@](C)(OC)[C@@H](O)[C@H](C)O2)[C@H](C)[C@@H](O[C@@H]2O[C@H](C)C[C@H](N(C)C)[C@H]2O)[C@](C)(O)C[C@@H](C)C(=O)[C@H](C)[C@@H](O)[C@]1(C)O [Erythromycin, erythromycin, reference compound]
MIC (E. coli JW5503 kanS; Escherichia coli, JW5503KANS): 2 µg/mL (≈ 2.73 µM)
MIC ([1]; Escherichia coli): 2 µg/mL (≈ 2.73 µM)
MIC ([2]; Escherichia coli): 2 µg/mL (≈ 2.73 µM)
% control signal (relative maximal rate of firefly luciferase accumulation in vitro) [3]: 0.8%
